According to patent publication US12605370B2, “Agents and compositions for the treatment of glioblastoma” (University of Cincinnati, priority 2020, dated 2026):

Legend:
Format in all cases: cell-based
[1] = tested on: PTEN-expressing glioblastoma cells; assay: Cell viability in PTEN-expressing glioblastoma cells (cabozantinib comparison)
Method: (§1) Glioblastoma cells were treated to produce two populations: PTEN-expressing and PTEN-deficient. These cells were then treated with either vehicle control, LY2584702, variable concentrations of cabozantinib, or a combination of LY2584702 and variable concentrations of cabozantinib. Cabozantinib is a small molecule inhibitor of RTKs, including TAM receptors. Cell viability was measured after culturing with the inhibitors.

[2] = tested on: PTEN-deficient glioblastoma cells; assay: Cell viability in PTEN-deficient glioblastoma cells (cabozantinib comparison)
Method: as §1

[3] = tested on: PTEN-expressing U-PTEN U87MG cells; assay: Cell viability (CytoTox Glo) in PTEN-expressing U-PTEN U87MG glioblastoma cells; conditions: U-PTEN U87MG (doxycycline-induced PTEN), serum-free, 72 hours
Method: (§2) FIG. 2 depicts a dose curve analysis showing the efficacy of the combination of LY2584702 with merestinib in PTEN-deficient U87MG glioblastoma cells. Viability was measured using CytoTox Glo after culturing with inhibitors in serum-free conditions for 72 hours. Doxycycline addition induced PTEN and protected cells from the cytotoxic effect of combination drug treatment.
(§3) U87MG glioblastoma cells were treated with doxycycline to induce PTEN expression (U-PTEN), while a separate set of U87 glioblastoma cells were treated with a similar amount of vector (U-vector). Thus, the U-vector cells were PTEN-deficient. These cells were then treated with either vehicle control, 10 μM LY2584702, 0.1-20 μM merestinib, or a combination of 10 μM LY2584702 and 0.1-20 μM merestinib. Cell viability was measured using CytoTox Glo after culturing with inhibitors in serum-free conditions for 72 hours.

[4] = tested on: shPTEN LN229 glioblastoma cells; assay: Cell viability (CytoTox Glo) in PTEN-deficient shPTEN LN229 glioblastoma cells; conditions: serum-free, 72 hours
Method: FIG. 1 depicts a dose curve analysis showing the efficacy of the combination of LY2584702 with merestinib in shPTEN LN229 glioblastoma cells. Viability was measured using CytoTox Glo after culturing with inhibitors in serum-free conditions for 72 hours.
(§4) LN229 glioblastoma cells were transduced with either short hairpin RNA (shRNA) lentiviral particles coding for non-targeting shRNA (shNT) or shRNA that targets PTEN mRNA (shPTEN) for inhibition and degradation. These cells were then treated with either vehicle control, 10 μM LY2584702, 0.1-20 μM merestinib, or a combination of 10 μM LY2584702 and 0.1-20 μM merestinib. Cell viability was measured using CytoTox Glo after culturing with inhibitors in serum-free conditions for 72 hours.

[5] = tested on: PTEN-deficient U-vector U87MG glioblastoma cells; assay: Cell viability (CytoTox Glo) in PTEN-deficient U-vector U87MG glioblastoma cells; conditions: serum-free, 72 hours
Method: as §2, §3

shNT LN229 cells = assay: Cell viability (CytoTox Glo) in non-targeting shNT LN229 glioblastoma cells; conditions: serum-free, 72 hours
Method: as §4

[6] = variable concentrations of cabozantinib alone

Measured: cytotoxicity (cell viability)

COc1cc2nccc(Oc3ccc(NC(=O)C4(C(=O)Nc5ccc(F)cc5)CC4)cc3)c2cc1OC [cabozantinib]
not cytotoxic: [1]; [6] | [2]; [6]

Cc1ccc(C(=O)Nc2ccc(Oc3cc4cnn(C)c4cc3-c3cn[nH]c3)c(F)c2)c(=O)n1-c1ccc(F)cc1 [merestinib]
not cytotoxic: [3]; 0.1-20 μM merestinib alone | [4]; 0.1-20 μM merestinib alone | [5]; 0.1-20 μM merestinib alone | shNT LN229 cells; 0.1-20 μM merestinib alone

Cn1cc(-c2ccc(F)c(C(F)(F)F)c2)nc1C1CCN(c2ncnc3[nH]ncc23)CC1 [LY2584702]
not cytotoxic: [3]; 10 μM LY2584702 alone | [4]; 10 μM LY2584702 alone | [1]; LY2584702 alone | [5]; 10 μM LY2584702 alone | [2]; LY2584702 alone | shNT LN229 cells; 10 μM LY2584702 alone
